KD and binding data for 2 compounds are collected here from paper PMC12564596 (2025).

Each structure is given as a SMILES string.

In test [1] the test system is HS-Apt-PEN (DNA, aptamer) CTGAATTGGATCTCTCTTCTTGAGCGATCTCCACA
Put plainly: LSPR on AuNPs, Langmuir fit. The conditions noted are these: 137 mM NaCl, 2.7 mM KCl; PBS pH 7.4; flow; MCH and salmon sperm DNA passivation; immobilised aptamer.

Test [2] has the same test system. Briefly: QCM-D on gold electrode, Langmuir fit of 3rd harmonic frequency. The conditions noted are these: 137 mM NaCl, 2.7 mM KCl; PBS pH 7.4; flow; immobilised aptamer; no clear plateau to 500 nM; some non-specific binding likely.
The test system of test [3] is HS-Apt-OTC (DNA, aptamer) GGGGGCACACATGTAGGTGCTGTCCAGGTGTGGTTGTGGT
Put plainly: LSPR and QCM-D selectivity test. Conditions: 137 mM NaCl, 2.7 mM KCl; PBS pH 7.4; 100 nM compound.

As to `CC1(C)S[C@@H]2[C@H](NC(=O)Cc3ccccc3)C(=O)N2[C@H]1C(=O)O`, the values for the KD in test [1] and in test [2] were 20 nM and 50 nM, respectively.

With `CN(C)[C@@H]1C(=O)C(C(N)=O)=C(O)[C@@]2(O)C(=O)C3=C(O)c4c(O)cccc4[C@@](C)(O)[C@H]3[C@H](O)[C@@H]12`, the binding entry in test [3] is “yes”.

What is called KD is a measure of binding affinity in units of concentration. A lower KD goes with higher affinity.
